From ChEMBL document CHEMBL5046262, “Fragment-Based Discovery of MRTX1719, a Synthetic Lethal Inhibitor of the PRMT5•MTA Complex for the Treatment of MTAP-Deleted Cancers” (J Med Chem, 2022)
“And” between values parts separate entries of the source, which are not always exact repeats. Identical values can stand only once.

Experiments:
[1] = Selectivity ratio of IC50 for antiproliferative activity against human HCT-116 cells expressing wild type MTAP to IC50 for antiproliferative activity against MTAP knockout human HCT-116 cells; assay type: functional
[2] = Apparent permeability across apical to basolateral side in dog MDCKII-MDR1 cells at 2 uM incubated for 2.5 hrs by LC-MS/MS analysis; assay type: ADME, cell-based, Canis lupus familiaris, MDCK-MDR1; details: for Papp A→B at 2.5 h, 2 µM: MDCK-MDR1; for Papp: mdck-mdr1, 2.5 h, 2 µM, 2.5 h
[3] = target: T1, Protein arginine N-methyltransferase 5 (Homo sapiens, UniProt O14744); assay: Inhibition of PRMT5 methyltransferase activity in MTAP knockout human HCT-116 cells assessed as inhibition of PRMT5- mediated SDMA modification level incubated for 96 hrs by Western blot analysis; assay type: cell-based
[4] = test system: HCT-116; assay: Antiproliferative activity against MTAP knockout human HCT-116 cells assessed as reduction in cell viability incubated for 5 days followed by replacement with fresh medium containing compound and measured after 5 days by CTG assay; assay type: functional, cell-based
[5] = Efflux ratio of apparent permeability across basolateral to apical side over apical to basolateral side in dog MDCKII-MDR1 cells at 2 uM incubated for 2.5 hrs by LC-MS/MS analysis; assay type: ADME, cell-based, Canis lupus familiaris, MDCK-MDR1; details: for efflux ratio at 2.5 h, 2 µM: MDCK-MDR1
[6] = Intrinsic clearance in mouse hepatocytes; assay type: ADME, cell-based, Hepatocyte; details: read-out: CLH
[7] = species on record: Homo sapiens; assay: Selectivity ratio of IC50 for inhibition of PRMT5 methyltransferase activity in human HCT-116 cells expressing wild type MTAP to IC50 for nhibition of PRMT5 methyltransferase activity in MTAP knockout human HCT-116 cells; assay type: cell-based
[8] = Intrinsic clearance in human hepatocytes; assay type: ADME, cell-based, Hepatocyte; details: read-out: CLH
[9] = test system: HCT-116; assay: Antiproliferative activity against human HCT-116 cells expressing wild type MTAP assessed as reduction in cell viability incubated for 5 days followed by replacement with fresh medium containing compound and measured after 5 days by CTG assay; assay type: functional, cell-based
[10] = target: T1, Protein arginine N-methyltransferase 5; assay: Inhibition of PRMT5 methyltransferase activity in human HCT-116 cells expressing wild type MTAP assessed as inhibition of PRMT5- mediated SDMA modification level incubated for 96 hrs by Western blot analysis; assay type: cell-based
[11] = target: T1, Protein arginine N-methyltransferase 5
[12] = target: PRMT5/MEP50 complex (Homo sapiens, UniProt O14744); assay: Inhibition of streptavidin sensor chip immobilized biotinylated human PRMT5/MEP50 assessed as dissociation constant by SPR analysis; assay type: protein-complex assay
[13] = target: T1, Protein arginine N-methyltransferase 5; remark: listed apart in the source
[14] = target: T1, Protein arginine N-methyltransferase 5; assay: Binding affinity to MTA-bound human PRMT5 assessed as dissociation constant by SPR assay
[15] = Oral bioavailability in cynomolgus monkey at 10 mg/kg administered via gavage measured upto 24 hrs by LC-MS/MS analysis; assay type: ADME, organism-based, Macaca fascicularis; details: in vivo
[16] = Volume of distribution at steady state in CD-1 mouse at 3 mg/kg, iv measured upto 24 hrs by LC-MS/MS analysis; assay type: ADME, organism-based; details: in vivo, read-out: Vdss
[17] = Cmax in CD-1 mouse at 30 mg/kg, po administered via gavage measured upto 24 hrs by LC-MS/MS analysis; assay type: ADME, organism-based; set-up: route oral, dose 30 mg/kg, time <=24; details: in vivo
[18] = Total clearance in cynomolgus monkey at 2 mg/kg, iv measured upto 24 hrs by LC-MS/MS analysis; assay type: ADME, organism-based, Macaca fascicularis; details: in vivo
[19] = AUCinfinity in CD-1 mouse at 30 mg/kg, po administered via gavage measured upto 24 hrs by LC-MS/MS analysis; assay type: ADME, organism-based; set-up: route oral, dose 30 mg/kg, time <=24; details: in vivo
[20] = Half life in beagle dog at 2 mg/kg, iv measured upto 24 hrs by LC-MS/MS analysis; assay type: ADME, organism-based, Canis lupus familiaris; details: in vivo
[21] = Oral bioavailability in CD-1 mouse at 30 mg/kg administered via gavage measured upto 24 hrs by LC-MS/MS analysis; assay type: ADME, organism-based; details: in vivo
[22] = Half life in cynomolgus monkey at 2 mg/kg, iv measured upto 24 hrs by LC-MS/MS analysis; assay type: ADME, organism-based, Macaca fascicularis; details: in vivo
[23] = Half life in CD-1 mouse at 3 mg/kg, iv measured upto 24 hrs by LC-MS/MS analysis; assay type: ADME, organism-based; details: in vivo
[24] = Cmax in beagle dog at 10 mg/kg, po administered via gavage measured upto 24 hrs by LC-MS/MS analysis; assay type: ADME, organism-based, Canis lupus familiaris; set-up: route oral, dose 10 mg/kg, time <=24; details: in vivo
[25] = Total clearance in CD-1 mouse at 3 mg/kg, iv measured upto 24 hrs by LC-MS/MS analysis; assay type: ADME, organism-based; details: in vivo
[26] = Oral bioavailability in beagle dog at 10 mg/kg administered via gavage measured upto 24 hrs by LC-MS/MS analysis; assay type: ADME, organism-based, Canis lupus familiaris; details: in vivo
[27] = Volume of distribution at steady state in cynomolgus monkey at 2 mg/kg, iv measured upto 24 hrs by LC-MS/MS analysis; assay type: ADME, organism-based, Macaca fascicularis; details: in vivo, read-out: Vdss
[28] = AUCinfinity in beagle dog at 10 mg/kg, po administered via gavage measured upto 24 hrs by LC-MS/MS analysis; assay type: ADME, organism-based, Canis lupus familiaris; set-up: route oral, dose 10 mg/kg, time <=24; details: in vivo
[29] = Volume of distribution at steady state in beagle dog at 2 mg/kg, iv measured upto 24 hrs by LC-MS/MS analysis; assay type: ADME, organism-based, Canis lupus familiaris; details: in vivo, read-out: Vdss
[30] = Total clearance in beagle dog at 2 mg/kg, iv measured upto 24 hrs by LC-MS/MS analysis; assay type: ADME, organism-based, Canis lupus familiaris; details: in vivo
[31] = Lipophilicity, logD of the compound at pH 7.4; assay type: physicochemical; details: buffer
[32] = test system: Lu-99 cell line; assay: Antitumor activity against MTAP/CDKN2A deleted human Lu-99 cells xenografted in Hsd athymic nude mouse assessed as tumor growth inhibition at 50 mg/kg, po qd administered via oral gavage for 21 days by caliper method relative to control; assay type: functional; details: Lu-99, po, 504 h, time 21 day, read-out: TGI
[33] = Toxicity in Hsd athymic nude mouse xenografted with MTAP/CDKN2A deleted human Lu-99 cells assessed as effect on body weight at 12.5 to 100 mg/kg, po qd administered via oral gavage for 21 days; assay type: organism-based, Lu-99 cell line; details: in vivo, 504 h, dose 12.5-100 mg/kg, time 21 day
[34] = test system: Lu-99 cell line; assay: Antitumor activity against MTAP/CDKN2A deleted human Lu-99 cells xenografted in Hsd athymic nude mouse assessed as reduction in PRMT5 mediated SDMA level in tumor at 12.5 to 100 mg/kg, po qd administered via oral gavage for 21 days relative to control; assay type: functional; set-up: scale not given: the % may be the effect or the level left; details: dose 12.5-100 mg/kg, time 21 day
[35] = test system: Lu-99 cell line; assay: Antitumor activity against MTAP/CDKN2A deleted human Lu-99 cells xenografted in Hsd athymic nude mouse assessed as tumor growth inhibition at 100 mg/kg, po qd administered via oral gavage for 21 days by caliper method relative to control; assay type: functional; details: Lu-99, po, 504 h, time 21 day, read-out: TGI
[36] = Inhibition of PRMT5 C449S mutant/MEP50 (unknown origin) using Histone H2A as substrate; set-up: species or system Homo sapiens

T1 sequence (O14744 whole entry): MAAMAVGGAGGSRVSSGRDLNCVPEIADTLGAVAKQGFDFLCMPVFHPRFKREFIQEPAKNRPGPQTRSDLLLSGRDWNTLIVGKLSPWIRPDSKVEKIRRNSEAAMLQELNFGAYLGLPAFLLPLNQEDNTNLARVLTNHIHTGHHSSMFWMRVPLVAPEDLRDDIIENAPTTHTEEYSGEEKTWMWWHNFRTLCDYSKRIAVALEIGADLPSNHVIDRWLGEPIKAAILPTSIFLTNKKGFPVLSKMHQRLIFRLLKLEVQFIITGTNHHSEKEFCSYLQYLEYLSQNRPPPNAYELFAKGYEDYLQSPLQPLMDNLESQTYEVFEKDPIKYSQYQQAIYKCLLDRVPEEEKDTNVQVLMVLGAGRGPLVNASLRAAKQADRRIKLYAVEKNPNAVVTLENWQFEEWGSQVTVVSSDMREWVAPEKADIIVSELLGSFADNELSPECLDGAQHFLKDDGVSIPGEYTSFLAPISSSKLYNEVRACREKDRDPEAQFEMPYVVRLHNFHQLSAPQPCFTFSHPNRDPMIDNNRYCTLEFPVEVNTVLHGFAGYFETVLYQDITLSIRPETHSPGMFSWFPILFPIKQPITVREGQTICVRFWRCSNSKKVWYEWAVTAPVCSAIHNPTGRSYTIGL
PRMT5/MEP50 complex, sequence (O14744 whole entry): as above
PRMT5/MEP50 complex, sequence (Q9BQA1 whole entry, further chain): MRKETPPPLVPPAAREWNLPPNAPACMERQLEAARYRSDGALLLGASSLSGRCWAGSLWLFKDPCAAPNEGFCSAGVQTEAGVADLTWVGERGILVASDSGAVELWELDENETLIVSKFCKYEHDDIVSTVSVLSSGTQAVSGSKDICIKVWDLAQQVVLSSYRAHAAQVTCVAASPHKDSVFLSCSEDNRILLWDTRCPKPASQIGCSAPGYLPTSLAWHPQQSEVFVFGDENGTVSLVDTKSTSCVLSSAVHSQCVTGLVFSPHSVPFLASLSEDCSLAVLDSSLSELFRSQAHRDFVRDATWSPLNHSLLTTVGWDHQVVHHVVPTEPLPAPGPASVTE

Cn1ncc(-c2ccc3c(=O)[nH]nc(CN)c3c2)c1-c1cccc(OC2CC2)c1C#N
Ratio IC50 [1]: 53
Papp A→B at 2.5 h, 2 µM [2]: 0.3 ×10⁻⁶ cm/s
IC50 [3]: 34 nM
IC50 [4]: 129 nM
efflux ratio at 2.5 h, 2 µM [5]: 104
CLint scaled [6]: 237 mL/min/kg
Ratio IC50 [7]: 193
CLint scaled [8]: < 18 mL/min/kg
IC50 [9]: 6820 nM
IC50 [10]: 6550 nM
IC50 [11]: 1000 nM

C[S@@+](CC[C@H](N)C(=O)[O-])C[C@H]1O[C@@H](n2cnc3c(N)ncnc32)[C@H](O)[C@@H]1O
Kd [12]: 550 nM

NCc1nnc(O)c2ccc(-c3ccccc3)cc12
IC50 [13]: 14500 nM
Papp A→B at 2.5 h, 2 µM [2]: 16 ×10⁻⁶ cm/s
Kd [14]: 1620 nM
efflux ratio at 2.5 h, 2 µM [5]: 0.8
IC50 [11]: 4300 nM

Cn1ncc(-c2ccc3c(=O)[nH]nc(CN)c3c2)c1-c1c(F)cc2ccccc2c1C#N
bioavailability [15]: 28%
Vd [16]: 5.3 L/kg
Cmax [17]: 590 ng/mL
clearance [18]: 24 mL/min/kg
AUC(0-inf) [19]: 2730 ng·h/mL
half-life [20]: 3.9 h
bioavailability [21]: 34%
half-life [22]: 2.6 h
half-life [23]: 1.5 h
Cmax [24]: 880 ng/mL
clearance [25]: 78 mL/min/kg
Papp A→B at 2.5 h, 2 µM [2]: 0.4 ×10⁻⁶ cm/s
Papp [2]: 0.3 ×10⁻⁶ cm/s
bioavailability [26]: 60%
Vd [27]: 3.3 L/kg
efflux ratio at 2.5 h, 2 µM [5]: 85
Ratio ([5]; mdck-mdr1, 2.5 h, 2 µM, 2.5 h): 136
CLint scaled [6]: 255 mL/min/kg
AUC(0-inf) [28]: 4800 ng·h/mL
Vd [29]: 4.4 L/kg
CLint scaled [8]: 18 mL/min/kg
IC50 [9]: 1020 nM and 5930 nM
clearance [30]: 21 mL/min/kg
IC50 [10]: 569 nM and > 1000 nM

Cn1cc(-c2ccc3c(=O)[nH]nc(CN)c3c2)cn1
logD [31]: -0.5
Papp A→B at 2.5 h, 2 µM [2]: 2.3 ×10⁻⁶ cm/s

Cn1ncc(-c2ccc3c(=O)[nH]nc(CN)c3c2)c1-c1cc(Cl)cc(OC2CC2)c1C#N
Ratio IC50 [1]: 24
Papp A→B at 2.5 h, 2 µM [2]: 0.2 ×10⁻⁶ cm/s
IC50 [3]: 8 nM
IC50 [4]: 41 nM
efflux ratio at 2.5 h, 2 µM [5]: 121
CLint scaled [6]: 336 mL/min/kg
CLint scaled [8]: < 18 mL/min/kg
IC50 [9]: 990 nM
IC50 [10]: 834 nM

Cn1ncc(-c2ccc3c(=O)[nH]nc(CN)c3c2)c1-c1c(F)c(Cl)cc(OC2CC2)c1C#N
bioavailability [15]: 41%
Vd [16]: 6.3 L/kg
Cmax [17]: 1160 ng/mL
clearance [18]: 15 mL/min/kg
AUC(0-inf) [19]: 4850 ng·h/mL
half-life [20]: 4.8 h
bioavailability [21]: 80%
half-life [22]: 6.1 h
half-life [23]: 1.5 h
Cmax [24]: 1400 ng/mL
clearance [25]: 83 mL/min/kg
Papp A→B at 2.5 h, 2 µM [2]: < 0.2 ×10⁻⁶ cm/s
Papp [2]: 0.3 ×10⁻⁶ cm/s
bioavailability [26]: 59%
Vd [27]: 2.3 L/kg
inhibition in vivo at 50 mg/kg [32]: 86%
AUC(0-inf) [28]: 7470 ng·h/mL
Vd [29]: 3.4 L/kg
Activity [33]: Non-Toxic
CLint scaled [8]: < 18 mL/min/kg
Activity [34]: 86%
inhibition in vivo at 100 mg/kg [35]: 88%
clearance [30]: 14 mL/min/kg
IC50 [36]: 717 nM

CSC[C@H]1O[C@@H](n2cnc3c(N)ncnc32)[C@H](O)[C@@H]1O [METHYLTHIOADENOSINE]
Kd [12]: 661 nM
